Results taken from patent US20260317319A1, “NOVEL ERGOLINES AND METHODS OF TREATING MOOD DISORDERS” (Gilgamesh Pharma Inc., priority 2023, published 2026).

What was measured:
[1] = target: T1, Alpha2A adrenergic receptor (Homo sapiens, UniProt P08913); assay: Ca2+ flux functional assay at Alpha2A; type: cell-based
T1 construct: expressed in transfected cells
T1 sequence (P08913 1-465): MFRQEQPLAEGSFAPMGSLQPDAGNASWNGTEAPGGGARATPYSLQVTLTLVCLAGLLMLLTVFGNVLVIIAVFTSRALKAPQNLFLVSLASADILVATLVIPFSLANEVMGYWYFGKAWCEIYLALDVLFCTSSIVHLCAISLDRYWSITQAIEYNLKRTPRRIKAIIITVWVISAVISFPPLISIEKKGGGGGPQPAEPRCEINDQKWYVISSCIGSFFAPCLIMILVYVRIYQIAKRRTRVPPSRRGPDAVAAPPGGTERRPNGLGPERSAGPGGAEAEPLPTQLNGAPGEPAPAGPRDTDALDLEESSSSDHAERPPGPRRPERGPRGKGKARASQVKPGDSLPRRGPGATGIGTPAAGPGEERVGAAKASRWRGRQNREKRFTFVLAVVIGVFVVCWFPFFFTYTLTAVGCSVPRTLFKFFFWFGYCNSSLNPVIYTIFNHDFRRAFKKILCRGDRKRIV
Method: Functional Assays at Adrenergic and Dopamine Receptors. Agonist activity at Alpha1A, Alpha2A, D1, and D2 receptors was determined using a FLIPR Ca^2+ flux assay at WuXi AppTec (Hong Kong) Limited according to their standard protocols. Briefly, stably transfected cells expressing the receptor of interest were grown and plated in a 384 well plate and incubated at 37° C. and 5% CO2 overnight. A solution of 250 mM probenecid in 1 mL FLIPR assay buffer was prepared fresh. This was combined with a fluorescent dye (Fluo-4 Direct™) to make a final assay concentration of 2.5 mM. […] The fluorescent dye was then added to the assay plate along with assay buffer to a final volume of 40 μL. The cell plate was incubated for 50 min at 37° C. and 5% CO2 and placed into the FLIPR Tetra along with the compound plate. 10 μL of references and compounds were then transferred from the compound plate into the cell plate and the fluorescent signal was read.

[2] = target: T2, Alpha1A adrenergic receptor (Homo sapiens, UniProt P35348); assay: Ca2+ flux functional assay at Alpha1A; type: cell-based
T2 construct: expressed in transfected cells
T2 sequence (P35348 1-466): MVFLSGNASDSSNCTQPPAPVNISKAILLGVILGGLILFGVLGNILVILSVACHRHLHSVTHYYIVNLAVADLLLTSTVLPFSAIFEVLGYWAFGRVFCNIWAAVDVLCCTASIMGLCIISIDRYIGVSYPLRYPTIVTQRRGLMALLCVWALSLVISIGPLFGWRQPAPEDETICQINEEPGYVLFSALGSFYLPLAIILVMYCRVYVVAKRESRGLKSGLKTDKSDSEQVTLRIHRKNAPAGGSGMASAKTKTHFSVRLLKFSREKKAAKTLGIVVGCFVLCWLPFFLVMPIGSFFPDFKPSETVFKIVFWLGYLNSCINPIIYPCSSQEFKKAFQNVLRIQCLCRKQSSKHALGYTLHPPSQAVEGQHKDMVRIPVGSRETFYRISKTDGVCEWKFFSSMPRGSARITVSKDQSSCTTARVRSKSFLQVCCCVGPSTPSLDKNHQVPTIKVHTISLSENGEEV

D1 dopamine receptor = target: T3, D1 dopamine receptor (Homo sapiens, UniProt P21728); assay: Ca2+ flux functional assay at D1; type: cell-based; settings: agonist, max dose, read-out: D1 % Act @ Max Dose
T3 construct: expressed in transfected cells
T3 sequence (P21728 whole entry): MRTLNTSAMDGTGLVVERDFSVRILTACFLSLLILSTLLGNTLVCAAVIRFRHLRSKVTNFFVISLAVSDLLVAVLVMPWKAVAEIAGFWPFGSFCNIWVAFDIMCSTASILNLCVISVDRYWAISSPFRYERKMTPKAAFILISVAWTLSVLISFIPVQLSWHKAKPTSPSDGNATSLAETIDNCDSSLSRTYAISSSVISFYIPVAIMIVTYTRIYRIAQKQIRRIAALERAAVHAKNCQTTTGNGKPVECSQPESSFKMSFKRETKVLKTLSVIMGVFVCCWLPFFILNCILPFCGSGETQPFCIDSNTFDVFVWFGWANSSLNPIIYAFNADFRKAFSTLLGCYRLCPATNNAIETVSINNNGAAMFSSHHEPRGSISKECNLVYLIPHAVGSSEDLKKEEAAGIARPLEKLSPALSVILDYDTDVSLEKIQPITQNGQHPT
Method: Disclosed compounds were tested for agonist activity at several adrenergic (Alpha1A and Alpha2A) and dopamine (D1 and D2) receptor subtypes using Ca^2+ flux functional assays, with the results summarized in Table 6. Selectivity for the 5-HT2A receptor over these other targets varied depending on the specific target and compound.
Functional Assays at Adrenergic and Dopamine Receptors. Agonist activity at Alpha1A, Alpha2A, D1, and D2 receptors was determined using a FLIPR Ca^2+ flux assay at WuXi AppTec (Hong Kong) Limited according to their standard protocols. Briefly, stably transfected cells expressing the receptor of interest were grown and plated in a 384 well plate and incubated at 37° C. and 5% CO2 overnight. A solution of 250 mM probenecid in 1 mL FLIPR assay buffer was prepared fresh. This was combined with a fluorescent dye (Fluo-4 Direct™) to make a final assay concentration of 2.5 mM. Compounds were diluted 1:3.16 for 10 points and 750 nL was added to a 384 well compound plate using ECHO along with 30 μL assay buffer. The fluorescent dye was then added to the assay plate along with assay buffer to a final volume of 40 μL. The cell plate was incubated for 50 min at 37° C. and 5% CO2 and placed into the FLIPR Tetra along with the compound plate. 10 μL of references and compounds were then transferred from the compound plate into the cell plate and the fluorescent signal was read.

C57BL/6 mice = assay: Mouse head twitch response (HTR) assay (observer-counted); type: in vivo; settings: SC
[3] = "higher" is compared to the N-methyl compound LSD

SMILES: CCN(CC)C(=O)[C@@H]1C=C2c3cccc4[nH]cc(c34)C[C@H]2N(Cc2ccccc2OC)C1 [Compound 10, (6aR,9R)—N,N-diethyl-7-(2-methoxybenzyl)-4,6,6a,7,8,9-hexahydroindolo[4,3-fg]quinoline-9-carboxamide]
- maximal efficacy at Alpha2A [1, 3]: very low efficacy agonists
- Emax ([1]; agonist, Ca2+ flux, max dose, read-out: Alpha 2A % Act @ Max Dose): 36.5%
- maximal efficacy at Alpha1A [2, 3]: very low efficacy agonists
- Emax ([2]; agonist, Ca2+ flux, max dose, read-out: Alpha 1A % Act @ Max Dose): 26.6%
- Emax (D1 dopamine receptor): 114%
- efficacy in HTR assay (C57BL/6 mice; maximal effect): low efficacy
- # HTR/20 min at Most Efficacious Dose (C57BL/6 mice; most efficacious dose 3.2 mg/kg): 6.5 HTR/20 min
